Measurements reported in patent US6413947B1, “Anilide derivative, production and use thereof” (Takeda Chemical Industries, Ltd., priority 1997, dated 2002).

Row | melting point | SMILES
1 | 208 to 210 °C | Cc1ccc(-c2ccc3c(c2)C=C(C(=O)Nc2ccc(C(O)c4cccc[n+]4[O-])cc2)CCO3)cc1 (centres unmarked) [Compound 167, N-[4-[hydroxy(1-oxidopyridin-2-yl)methyl]phenyl]-7—(4-methylphenyl)-2,3-dihydro-1-benzoxepine-4-carboxamide]
2 | 203 to 204 °C | Cc1ccc(-c2ccc3c(c2)C=C(C(=O)Nc2ccc(CN4CCCCC4)cc2)CCS3)cc1 [Compound 93, 7—(4-methylphenyl)-N-(4-piperidinomethylphenyl)-2,3-dihydro-1-benzothiepine-4-carboxamide]
3 | 153 to 154 °C | Cc1ccc(-c2cccc(/C=C/C(=O)Nc3ccc(CN4CCCC(CO)C4)cc3)c2)cc1 (centres unmarked) [Compound 66, (E)-N-[4-[3—(hydroxy-methyl)piperidinomethyl]phenyl]-3—(4-methylphenyl)cinnamamide]
4 | 175 to 176 °C | Cc1ccc(S(=O)(=O)N2CCC(c3cccc4c3CCCC(C(=O)Nc3ccc(CN(C)C5CCOCC5)cc3)=C4)CC2)cc1 [Compound 289, 4-[1-(4-methylphenylsulfonyl)piperidin-4-yl]-N-(4-(N-methyl-N-(tetrahydropyran-4-yl)aminomethyl]phenyl]-6,7-dihydro-5H-benzocycloheptene-8-carboxamide]
5 | 224 to 227 °C | Cc1ccc(-c2cc3ccc(C(=O)Nc4ccc(CN(C)C5CCOCC5)cc4)cc3o2)cc1 [Compound 278, 2-(4-methylphenyl)-N-[4-[N-methyl-N-(tetrahydropyran-4-yl)aminomethyl]phenyl]benzofuran-6-carboxamide]
6 | 143 to 144 °C | COc1cc(CN2CCN(Cc3ccc(NC(=O)C4=Cc5cc(-c6ccc(C)cc6)ccc5CC4)cc3)CC2)cc(OC)c1OC [Compound 45, N-[4-[1—(3,4,5-trimethoxybenzyl)-4-piperazinylmethyl]-phenyl]-7—(4-methylphenyl)-3,4-dihydronaphthalene-2-carboxamide]
7 | 139 to 141 °C | CCSc1ccc(-c2ccc3c(c2)C=C(C(=O)Nc2ccc(CN(C)C4CCOCC4)cc2)CCN3C)cc1 [Compound 320, 7-(4-ethylthiophenyl)-1-methyl-N-[4-[[N-methyl-N-(tetrahydro-2H-pyran-4-yl)amino]methyl]phenyl]-2,3-dihydro-1-benzazepine-4-carboxamide]
8 | 163 to 164 °C | O=C(Nc1ccc(CN2CCCCC2)cc1)C1=Cc2cc(-c3ccccc3)ccc2CC1 [Compound 4, 7-phenyl-N-[4—(piperidinomethyl)phenyl]-3,4-dihydronaphthalene-2-carboxamide]
9 | 208 to 209 °C (dec.) | CN(C)c1ccc(-c2ccc3c(c2)C=C(C(=O)Nc2ccc(CN(C)C4CCOCC4)cc2)CCO3)cc1 [Compound 149, 7—(4-dimethylaminophenyl)-N-(4—((N-tetrahydropyran-4-yl-N-methylamino)methyl)phenyl)-2,3-dihydro-1-benzoxepine-4-carboxamide]
10 | 268 to 269 °C | Cc1ccc(-c2ccc3c(c2)C=C(C(=O)Nc2ccc(CP4(=O)OCCCO4)cc2)CCO3)cc1 [Ref Ex 51, 2—(4—(7—(4-methylphenyl)-2,3-dihydro-1-benzoxepin-4-carbonylamino)benzyl)-1,3,2-dioxaphosphorinane-2-oxide]
11 | 194 to 195 °C | CN(Cc1ccc(NC(=O)C2=Cc3cc(-c4ccc(-n5ccnc5)cc4)ccc3OCC2)cc1)C1CCOCC1 [Compound 153, 7—(4—(1-imidazolyl)phenyl)-N-(4—((N-tetra-hydropyran-4-yl-N-methylamino)methyl)phenyl)-2,3-dihydro-1-benzoxepine-4-carboxamide]
12 | 216 to 219 °C | Cc1ccc(-c2ccc3c(c2)C=C(C(=O)Nc2ccc(C[N+](C)(C)CCCO)cc2)CCO3)cc1.[I-] [Compound 240, dimethyl-3-hydroxypropyl-(N-(7-(4-methylphenyl)-2,3-dihydro-1-benzoxepin-4-carbonyl)-4-aminobenzyl)ammonium iodide]
13 | 133 to 139 °C | COc1ccc(-c2ccc3c(c2)C=C(C(=O)Nc2ccc(CN(C)C4CCC(=O)CC4)cc2)CCS3)cc1 [Compound 284, 7-(4-methoxyphenyl)-N-[4-[N-methyl-N-(4-oxocyclohexyl)aminomethyl]phenyl]-2,3-dihydro-1-benzothiepine-4-carboxamide]

The next lines start with the compound.

Row | SMILES | melting point
14 | Cc1ccc(-c2ccc3c(c2)C=C(C(=O)Nc2ccc(C(O)c4ccccn4)cc2)C(C)O3)cc1 (centres unmarked) [Compound 202, N-[4-[hydroxy(2-pyridyl)methyl]-phenyl]-6—(4-methylphenyl)-2-methyl-2H-1-benzopyran-3-carboxamide] | 202 to 205 °C
15 | CN(Cc1ccc(NC(=O)C2=Cc3cc(-c4cccnc4)ccc3OCC2)cc1)C1CCOCC1 [Compound 146, 7—(3-pyridyl)-N-(4—((N-tetrahydropyran-4-yl-N-methylamino)-methyl)phenyl)-2,3-dihydro-1-benzoxepine-4-carboxamide] | 158 to 159 °C
16 | Cc1ccc(-c2ccc3c(c2)C=C(C(=O)Nc2ccc(C[N+](C)(C)C4CCOCC4)cc2)CCS3)cc1.[I-] [Compound 241, dimethyl-(N-(7-(4-methylphenyl)-2,3-dihydro-1-benzothiepine-4-carbonyl)-4-aminobenzyl)-N-(4-tetrahydropyranyl)ammonium iodide] | 220 to 222 °C (dec.)
17 | Cc1ccc(-c2ccc3c(c2)C=C(C(=O)Nc2ccc(CN(C)C4CCOCC4)cc2)CC(C)O3)cc1 (centres unmarked) [Compound 104, 7—(4-methylphenyl)-2-methyl-N-(4—((N-tetrahydropyran-4-yl-N-methylamino)methyl)phenyl)-2,3-dihydro-1-benzoxepine-4-carboxamide] | 170 to 171 °C
18 | Cc1ccc(-c2ccc3c(c2)C=C(C(=O)Nc2ccc(Cc4cccc[n+]4[O-])cc2)CO3)cc1 [Compound 200, N-[4—(1-oxidopyridin-2-ylmethyl)phenyl]-6—(4-methylphenyl)-2H-1-benzopyran-3-carboxamide] | 261 to 263 °C
19 | Cc1ccc(-c2cccc(/C=C/C(=O)Nc3ccc(Cc4ccccn4)cc3)c2)cc1 [Compound 190, (E)-N-[4—(2-pyridylmethyl)phenyl]-3—(4-methylphenyl)cinnamamide] | 169 to 171 °C
20 | Cc1ccc(-c2ccc3c(c2)C=C(C(=O)Nc2ccc(C[S+]([O-])c4ccccc4)cc2)CCO3)cc1 (centres unmarked) [Compound 108, 7—(4-methylphenyl)-N-(4—(phenylsulfinylmethyl)phenyl)-2,3-dihydro-1-benzoxepine-4-carboxamide] | 127 to 128 °C
21 | Cc1ccc(-c2ccc3c(c2)C=C(C(=O)Nc2ccc(-c4ccccn4)cc2)CCO3)cc1 [Compound 159, N-[4—(2-pyridyl)phenyl]-7—(4-methylphenyl)-2,3-dihydro-1-benzoxepine-4-carboxamide] | 228 to 229 °C
22 | COCOc1ccc[n+]([O-])c1Cc1ccc(NC(=O)C2=Cc3cc(-c4ccc(C)cc4)ccc3OCC2)cc1 [Compound 173, N-[4—(1-oxido-3-methoxymethoxypyridin-2-ylmethyl)phenyl]-7—(4-methylphenyl)-2,3-dihydro-1-benzoxepine-4-carboxamide] | 206 to 208 °C
23 | Cc1ccc(-c2ccc3c(c2)C=C(C(=O)Nc2ccc(CN4CCSCC4)cc2)CC3)cc1 [Compound 50, 7—(4-methylphenyl)-N-[4—(thiomorpholinomethyl)phenyl]-3,4-dihydro-naphthalene-2-carboxamide] | 178 to 180 °C
